Reference: publication PMC6631349 (Xenobiotica; the fate of foreign compounds in biological …, 2014)

Tests used:
[1] = tested on: UGT1A3; conditions: ref Fang et al., 2014b; cited from earlier work
[2] = tested on: UGT isoforms; experiment: Initial screening towards all UGT isoforms; format: biochemical, human; conditions: about 50 μM; isoforms not given
[3] = biological target: T1, UGT2B7 (Homo sapiens, UniProt P16662); conditions: 50 μM
T1 sequence (P16662 24-529): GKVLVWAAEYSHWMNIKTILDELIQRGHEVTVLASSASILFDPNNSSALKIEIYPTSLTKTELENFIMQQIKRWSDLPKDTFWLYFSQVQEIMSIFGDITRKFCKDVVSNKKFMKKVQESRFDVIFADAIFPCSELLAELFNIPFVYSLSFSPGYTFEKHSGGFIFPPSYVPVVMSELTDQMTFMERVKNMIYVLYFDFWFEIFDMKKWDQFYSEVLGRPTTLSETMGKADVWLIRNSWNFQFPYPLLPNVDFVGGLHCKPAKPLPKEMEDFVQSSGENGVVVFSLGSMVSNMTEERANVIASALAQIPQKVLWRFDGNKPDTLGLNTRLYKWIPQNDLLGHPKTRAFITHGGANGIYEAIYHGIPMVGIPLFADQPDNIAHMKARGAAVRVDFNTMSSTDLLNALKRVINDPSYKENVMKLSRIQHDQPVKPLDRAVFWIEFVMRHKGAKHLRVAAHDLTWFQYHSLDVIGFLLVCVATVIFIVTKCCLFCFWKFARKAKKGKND

[4] = biological target: T2, UGT1A6 (Homo sapiens, UniProt P19224); conditions: 50 μM
T2 sequence (P19224 27-532): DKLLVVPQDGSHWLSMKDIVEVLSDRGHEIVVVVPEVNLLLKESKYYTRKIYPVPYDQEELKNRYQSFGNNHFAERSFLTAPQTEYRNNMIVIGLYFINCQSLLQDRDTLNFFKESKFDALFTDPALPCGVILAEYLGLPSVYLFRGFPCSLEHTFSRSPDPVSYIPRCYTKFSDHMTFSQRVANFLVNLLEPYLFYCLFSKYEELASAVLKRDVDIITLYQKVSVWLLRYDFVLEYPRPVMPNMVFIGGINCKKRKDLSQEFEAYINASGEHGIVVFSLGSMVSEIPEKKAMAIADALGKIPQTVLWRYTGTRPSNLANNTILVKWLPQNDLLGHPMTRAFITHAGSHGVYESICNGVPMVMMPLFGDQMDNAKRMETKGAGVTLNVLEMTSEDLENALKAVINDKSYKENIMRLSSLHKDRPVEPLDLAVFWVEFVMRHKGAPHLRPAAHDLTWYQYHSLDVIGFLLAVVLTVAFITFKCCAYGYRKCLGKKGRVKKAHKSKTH

[5] = biological target: T3, UGT1A8 (Homo sapiens, UniProt Q9HAW9); conditions: 50 μM
T3 sequence (Q9HAW9 26-530): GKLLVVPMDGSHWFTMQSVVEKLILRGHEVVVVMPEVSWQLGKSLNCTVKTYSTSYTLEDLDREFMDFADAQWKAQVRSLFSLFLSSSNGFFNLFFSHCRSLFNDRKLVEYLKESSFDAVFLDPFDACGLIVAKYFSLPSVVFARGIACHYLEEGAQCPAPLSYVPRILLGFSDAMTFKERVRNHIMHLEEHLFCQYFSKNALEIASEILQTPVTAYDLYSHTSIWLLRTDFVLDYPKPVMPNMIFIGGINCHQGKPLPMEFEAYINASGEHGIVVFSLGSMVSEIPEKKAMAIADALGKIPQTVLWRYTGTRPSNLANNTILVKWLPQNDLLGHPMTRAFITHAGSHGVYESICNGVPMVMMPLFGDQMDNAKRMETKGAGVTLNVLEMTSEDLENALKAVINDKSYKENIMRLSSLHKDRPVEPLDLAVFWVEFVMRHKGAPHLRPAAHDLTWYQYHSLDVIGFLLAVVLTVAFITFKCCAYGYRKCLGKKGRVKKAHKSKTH

[6] = tested on: UGTs; conditions: ref Dragacci et al. (1987); cited from earlier work
[7] = biological target: T2, UGT1A6; conditions: Dixon and Lineweaver-Burk plots; 4-MU glucuronidation
[8] = biological target: T4, UGT1A4 (Homo sapiens, UniProt P22310); experiment: UGT1A4-catalyzed trifluoperazine; conditions: recombinant human UGT1A4, probe trifluoperazine (TFP), 40 μM
T4 sequence (P22310 29-534): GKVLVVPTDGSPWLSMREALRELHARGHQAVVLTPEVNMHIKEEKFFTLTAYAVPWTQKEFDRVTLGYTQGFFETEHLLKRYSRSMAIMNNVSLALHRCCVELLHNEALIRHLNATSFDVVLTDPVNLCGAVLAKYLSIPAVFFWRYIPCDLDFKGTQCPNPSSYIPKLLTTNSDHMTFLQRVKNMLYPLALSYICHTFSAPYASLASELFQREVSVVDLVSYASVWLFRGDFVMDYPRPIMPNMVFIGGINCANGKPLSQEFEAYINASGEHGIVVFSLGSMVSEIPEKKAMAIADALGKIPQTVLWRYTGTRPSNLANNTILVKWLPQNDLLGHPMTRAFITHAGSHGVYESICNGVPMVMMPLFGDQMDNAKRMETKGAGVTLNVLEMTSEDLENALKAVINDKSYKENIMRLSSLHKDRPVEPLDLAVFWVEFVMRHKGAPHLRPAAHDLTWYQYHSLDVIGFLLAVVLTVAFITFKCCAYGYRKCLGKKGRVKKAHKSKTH

[9] = biological target: T3, UGT1A8; conditions: Dixon and Lineweaver-Burk plots; 4-MU glucuronidation
[10] = tested on: multiple UGT isoforms, including UGT1A1, UGT1A3, UGT1A4, UGT1A7, UGT1A10, UGT2B7 and UGT2B15; conditions: ref Fang et al., 2013b; cited from earlier work

C[C@H](CCC(=O)O)[C@H]1CC[C@H]2[C@@H]3[C@H](O)C[C@@H]4C[C@H](O)CC[C@]4(C)[C@H]3C[C@H](O)[C@]12C [CA, cholic acid]
effect on the activity of UGT1A3 (in words) [1]: allosteric activation

C[C@H](CCC(=O)NCC(=O)O)[C@H]1CC[C@H]2[C@@H]3[C@H](O)C[C@@H]4C[C@H](O)CC[C@]4(C)[C@H]3C[C@H](O)[C@]12C [GCA, glycocholic acid]
effect on the activity of UGT1A3 (in words) [1]: allosteric activation

CCCCCCCCCCCCCCCC(=O)OC[C@@H](O)COP(=O)([O-])OCC[N+](C)(C)C [LPC 16:0]
inhibition of activity of UGT isoforms [2]: more than 90%

CCCCCCCC/C=C\CCCCCCCC(=O)OC[C@@H](O)COP(=O)([O-])OCC[N+](C)(C)C [LPC 18:1]
inhibition percentage of UGT2B7 activity [3]: 87.3%
inhibition of activity of UGT isoforms [2]: more than 90%
inhibition percentage of UGT1A6 activity [4]: 97.5%
inhibition percentage of UGT1A8 activity [5]: 98.7%
increase for UGTs' activity (maximal regulation capability) [6]: approximately 4 fold

CCCCCCCCCCCCCCCC(=O)OC[C@H](COP(=O)([O-])OCC[N+](C)(C)C)OC(C)=O [PC 16:0, 2:0, 1-palmitoyl-2-acetyl-sn-glycero-3-phosphocholine]
inhibition kinetic type towards UGT1A6 [7]: competitive inhibition
inhibition of activity of UGT isoforms [2]: more than 90%
activity at 20 min, 50 μM [8]: 5.5%
inhibition at 20 min, 50 µM [8]: 94.5%
inhibition kinetic type towards UGT1A8 [9]: non-competitively inhibited

CCCCCCCCCCCCCCCC(=O)OC[C@H](COP(=O)([O-])OCC[N+](C)(C)C)OC(=O)CCCCCCCCCCCCC [PC 16:0, 14:0, 1-palmitoyl-2-myristoyl-sn-glycero-3-phosphocholine]
activity at 20 min, 50 μM [8]: 63.8%

CCCCCCCCCCCCCCCCCC(=O)O[C@H](COC(=O)CCCCCCCCCCCCCCC)COP(=O)([O-])OCC[N+](C)(C)C [PC 16:0, 18:0, 1-palmitoyl-2-stearoyl-sn-glycero-3-phosphocholine]
activity at 20 min, 50 μM [8]: 90%

CCCCCCCC/C=C\CCCCCCCC(=O)O[C@H](COC(=O)CCCCCCCCCCCCCCC)COP(=O)([O-])OCC[N+](C)(C)C [PC 16:0, 18:1, 1-palmitoyl-2-oleoyl-sn-glycero-3-phosphocholine]
activity at 20 min, 50 μM [8]: 51.8%

CCCCC/C=C\C/C=C\CCCCCCCC(=O)O[C@H](COC(=O)CCCCCCCCCCCCCCCCC)COP(=O)([O-])OCC[N+](C)(C)C [PC 18:0, 18:2, 1-stearoyl-2-linoleoyl-sn-glycero-3-phosphocholine]
activity at 20 min, 50 μM [8]: 54.3%

CCCCC/C=C\C/C=C\C/C=C\C/C=C\CCCC(=O)O[C@H](COC(=O)CCCCCCCCCCCCCCCCC)COP(=O)([O-])OCC[N+](C)(C)C [PC 18:0, 20:4, 1-stearoyl-2-arachidonoyl-sn-glycero-3-phosphocholine]
activity at 20 min, 50 μM [8]: 52.1%

CCCCCCCC/C=C\CCCCCCCC(=O)OC[C@H](COP(=O)([O-])OCC[N+](C)(C)C)OC(=O)CCCCCCCCCCCCC [PC 18:1, 14:0, 1-oleoyl-2-myristoyl-sn-glycero-3-phosphocholine]
activity at 20 min, 50 μM [8]: 49.8%

CCCCCCCC/C=C\CCCCCCCC(=O)OC[C@H](COP(=O)([O-])OCC[N+](C)(C)C)OC(=O)CCCCCCCCCCCCCCC [PC 18:1, 16:0, 1-oleoyl-2-palmitoyl-sn-glycero-3-phosphocholine]
activity at 20 min, 50 μM [8]: 52.6%

CCCCCCCC/C=C\CCCCCCCC(=O)OC[C@H](COP(=O)([O-])OCC[N+](C)(C)C)OC(=O)CCCCCCCCCCCCCCCCC [PC 18:1, 18:0, 1-oleoyl-2-stearoyl-sn-glycero-3-phosphocholine]
activity at 20 min, 50 μM [8]: 60.4%

C[C@H](CCC(=O)NCCS(=O)(=O)O)[C@H]1CC[C@H]2[C@@H]3CC[C@@H]4C[C@H](O)CC[C@]4(C)[C@H]3CC[C@]12C [TLCA, taurolithocholic acid]
inhibitory effects towards multiple UGT isoforms (in words) [10]: strong inhibitory effects
